Patent publication US9315467B2, “Compounds for nonsense suppression, and methods for their use” (priority 2004, dated 2016)

Test system: UGA nonsense mutation, followed by a cytosine nucleotide (UGAC)
Experiment: western blot of luciferase, UGA nonsense mutation followed by cytosine (UGAC)
Format: cell-based, Human
Description: The nonsense suppression activity in an assay as described above is shown in the Table 3 below, for a construct with a UAG nonsense mutation at position 190, followed by an adenine nucleotide in-frame, (UAGA); and a construct with a UAA nonsense mutation at position 190, followed by an adenine nucleotide in-frame, (UAAA).
Another assay of the present invention can evaluate compounds that promote nonsense mutation suppression. The luciferase constructs described above in FIG. 1 are engineered to harbor two epitope tags in the N-terminus of the luciferase protein. Based on luciferase protein production, these constructs qualitatively assess the level of translation-readthrough. The presence of the full-length luciferase protein produced by suppression of the premature termination codon is measured by immunoprecipitation of the suppressed luciferase protein (using an antibody against a His tag) followed by western blotting using an antibody against the second epitope (the Xpress™ epitope; Invitrogen®; Carlsbad, Calif.). […]
Cells that harbor the constructs of FIG. 2 show increased full-length protein production when treated with a compound of the present invention. […] Treatment of cells with a test compound produces full-length protein and not a readthrough protein (See e.g., FIG. 3). The readthrough protein is produced if suppression of the normal termination codon occurs. […]

For `O=C(O)c1cccc(-c2ncnc(-c3ccc(C(F)(F)F)cc3)n2)c1` [Compound 50, 3-[4-(4-Trifluoromethyl-phenyl)-[1,3,5]triazin-2-yl]-benzoic acid], the “UGAC (signal on western blot)” value was “POSWB”.
With `COc1cccc(-c2ncnc(-c3cccc(C(=O)O)c3)n2)c1` [Compound 51, 3-[4-(3-Methoxy-phenyl)-[1,3,5]triazin-2-yl]-benzoic acid] the “UGAC (signal on western blot)” value was “POSWB”.

Test system: not given
Experiment: not given

First: O=C(O)c1ccc(-c2nccc(-c3ccc(Br)cc3)n2)cc1 [Compound 33, 4-[4-(4-Bromo-phenyl)-pyrimidin-2-yl]-benzoic acid]
Second: Cc1ccc(-c2ccnc(-c3ccc(C(=O)O)cc3)n2)cc1 [Compound 35, 4-(4-p-Tolyl-pyrimidin-2-yl)-benzoic acid]
The melting point of the first is higher: 302 to 305 °C for the first, 287 to 289 °C for the second.

First: O=C(O)c1ccc(-c2nccc(-c3ccc(OC(F)(F)F)cc3)n2)cc1 [Compound 34, 4-[4-(4-Trifluoromethoxy-phenyl)-pyrimidin-2-yl]-benzoic acid]
Second: O=C(O)c1ccc(-c2nccc(-c3ccc(C(F)(F)F)cc3)n2)cc1 [Compound 66, 4-[4-(4-Trifluoromethyl-phenyl)-pyrimidin-2-yl]-benzoic acid]
The melting point of the first is lower: 234 to 236 °C for the first, 282 to 285 °C for the second.

`CC(C)c1ccc(-c2ccnc(-c3ccc(C(=O)O)cc3)n2)cc1` [Compound 36, 4-[4-(4-Isopropyl-phenyl)-pyrimidin-2-yl]-benzoic acid] and `CC(C)c1ccc(-c2ccnc(-c3cccc(C(=O)O)c3)n2)cc1` [Compound 70, 3-[4-(4-Isopropyl-phenyl)-pyrimidin-2-yl]-benzoic acid] cannot be ordered by melting point: 243 to 245 °C for the first, 242 to 244 °C for the second.

First: COc1ccc(-c2ccnc(-c3ccc(C(=O)O)cc3)n2)cc1 [Compound 37, 4-[4-(4-Methoxy-phenyl)-pyrimidin-2-yl]-benzoic acid]
Second: COc1ccc(-c2ccnc(-c3cccc(C(=O)O)c3)n2)cc1 [Compound 71, 3-[4-(4-Methoxy-phenyl)-pyrimidin-2-yl]-benzoic acid]
The melting point of the first is higher: 263 to 265 °C for the first, 243 to 244 °C for the second.

First: O=C(O)c1ccc(-c2nccc(-c3cccc(F)c3)n2)cc1 [Compound 38, 4-[4-(3-Fluoro-phenyl)-pyrimidin-2-yl]-benzoic acid]
Second: Cc1cccc(-c2ccnc(-c3ccc(C(=O)O)cc3)n2)c1 [Compound 64, 4-(4-m-Tolyl-pyrimidin-2-yl)-benzoic acid]
The melting point of the first is higher: 249 to 252 °C for the first, 220 to 222 °C for the second.

First: O=C(O)c1ccc(-c2nccc(-c3ccc(-c4ccccc4)cc3)n2)cc1 [Compound 39, 4-(4-Biphenyl-4-yl-pyrimidin-2-yl)-benzoic acid]
Second: O=C(O)c1cccc(-c2nccc(-c3ccc(-c4ccccc4)cc3)n2)c1 [Compound 75, 3-(4-Biphenyl-4-yl-pyrimidin-2-yl)-benzoic acid]
The melting point of the first is lower: 293 to 296 °C for the first, 296 to 299 °C for the second.

First: O=C(O)c1ccc(-c2nccc(-c3ccc4c(c3)OCCO4)n2)cc1 [Compound 40, 4-[4-(2,3-Dihydro-benzo[1,4]dioxin-6-yl)-pyrimidin-2-yl]-benzoic acid]
Second: O=C(O)c1cccc(-c2nccc(-c3ccc4c(c3)OCCO4)n2)c1 [Compound 42, 3-[4-(2,3-Dihydro-benzo[1,4]dioxin-6-yl)-pyrimidin-2-yl]-benzoic acid]
The melting point of the first is higher: 272 to 274 °C for the first, 239 to 241 °C for the second.

Compared with `O=C(O)c1cccc(-c2ncnc(-c3ccc(F)cc3)n2)c1` [Compound 44, 3-[4-(4-Fluoro-phenyl)-[1,3,5]triazin-2-yl]-benzoic acid], `COc1ccc(-c2ncnc(-c3cccc(C(=O)O)c3)n2)cc1` [Compound 48, 3-[4-(4-Methoxy-phenyl)-[1,3,5]triazin-2-yl]-benzoic acid] is higher in melting point: 266 to 269 °C for the first, 307 to 309 °C for the second.

Compared with `CCOc1ccc(-c2ncnc(-c3cccc(C(=O)O)c3)n2)cc1` [Compound 45, 3-[4-(4-Ethoxy-phenyl)-[1,3,5]triazin-2-yl]-benzoic acid], `O=C(O)c1cccc(-c2ncnc(-c3ccc(C(F)(F)F)cc3)n2)c1` [Compound 50, 3-[4-(4-Trifluoromethyl-phenyl)-[1,3,5]triazin-2-yl]-benzoic acid] is higher in melting point: 269 to 272 °C for the first, 290 to 293 °C for the second.

First: Cc1ccc(-c2ncnc(-c3ccc(C(=O)O)cc3)n2)cc1 [Compound 46, 4-(4-p-Tolyl-[1,3,5]triazin-2-yl)-benzoic acid]
Second: O=C(O)c1ccc(-c2ncnc(-c3ccc(F)cc3)n2)cc1 [Compound 47, 4-[4-(4-Fluoro-phenyl)-[1,3,5]triazin-2-yl]-benzoic acid]
The melting point of the first is lower: 288 to 290 °C for the first, 295 to 298 °C for the second.

First: O=C(O)c1cccc(-c2ncnc(-c3cccc(F)c3)n2)c1 [Compound 49, 3-[4-(3-Fluoro-phenyl)-[1,3,5]triazin-2-yl]-benzoic acid]
Second: COc1cccc(-c2ncnc(-c3cccc(C(=O)O)c3)n2)c1 [Compound 51, 3-[4-(3-Methoxy-phenyl)-[1,3,5]triazin-2-yl]-benzoic acid]
The melting point of the first is higher: 273 to 276 °C for the first, 227 to 229 °C for the second.

First: Cc1cnc(-c2cccc(C(=O)O)c2)nc1-c1ccccc1F [Compound 54, 3-[4-(2-Fluoro-phenyl)-5-methyl-pyrimidin-2-yl]-benzoic acid]
Second: O=C(O)c1cccc(-c2nccc(-c3ccccc3F)n2)c1 [Compound 72, 3-[4-(2-Fluoro-phenyl)-pyrimidin-2-yl]-benzoic acid]
The melting point of the first is higher: 279 to 281 °C for the first, 201 to 203 °C for the second.

Compared with `Cc1cc(-c2ccc(F)cc2)nc(-c2cccc(C(=O)O)c2)n1` [Compound 56, 3-[4-(4-Fluoro-phenyl)-6-methyl-pyrimidin-2-yl]-benzoic acid], `Cc1ccc(-c2ccnc(-c3cccc(C(=O)O)c3)n2)cc1` [Compound 73, 3-(4-p-Tolyl-pyrimidin-2-yl)-benzoic acid] is lower in melting point: 305 to 307 °C for the first, 252 to 253 °C for the second.

First: COc1ccc(-c2ccnc(-c3ccc(C(=O)O)cc3)n2)cc1OC [Compound 57, 4-[4-(3,4-Dimethoxy-phenyl)-pyrimidin-2-yl]-benzoic acid]
Second: COc1ccc(-c2ccnc(-c3cccc(C(=O)O)c3)n2)cc1OC [Compound 58, 3-[4-(3,4-Dimethoxy-phenyl)-pyrimidin-2-yl]-benzoic acid]
The melting point of the first is higher: 250 to 252 °C for the first, 240 to 243 °C for the second.

Compared with `CN(C)c1ccc(-c2ccnc(-c3ccc(C(=O)O)cc3)n2)cc1` [Compound 59, 4-[4-(4-Dimethylamino-phenyl)-pyrimidin-2-yl]-benzoic acid], `CN(C)c1ccc(-c2ccnc(-c3cccc(C(=O)O)c3)n2)cc1` [Compound 60, 3-[4-(4-Dimethylamino-phenyl)-pyrimidin-2-yl]-benzoic acid] is lower in melting point: 292 to 295 °C for the first, 281 to 283 °C for the second.

First: O=C(O)c1ccc(-c2ccnc(-c3ccccc3OC(F)(F)F)n2)cc1 [Compound 61, 4-[2-(2-Trifluoromethoxy-phenyl)-pyrimidin-4-yl]-benzoic acid]
Second: O=C(O)c1ccc(-c2nccc(-c3ccccc3F)n2)cc1 [Compound 65, 4-[4-(2-Fluoro-phenyl)-pyrimidin-2-yl]-benzoic acid]
The melting point of the first is higher: 258 to 261 °C for the first, 234 to 236 °C for the second.

`O=C(O)c1ccc(-c2nccc(-c3cccc(C(F)(F)F)c3)n2)cc1` [Compound 63, 4-[4-(3-Trifluoromethyl-phenyl)-pyrimidin-2-yl]-benzoic acid] and `O=C(O)c1cccc(-c2nccc(-c3ccc(C(F)(F)F)cc3)n2)c1` [Compound 78, 3-[4-(4-Trifluoromethyl-phenyl)-pyrimidin-2-yl]-benzoic acid] fall in the same range of melting point: 271 to 273 °C for the first, 271 to 273 °C for the second.

Compared with `O=C(O)c1ccc(-c2nccc(-c3ccc(N4CCOCC4)cc3)n2)cc1` [Compound 67, 4-[4-(4-Morpholin-4-yl-phenyl)-pyrimidin-2-yl]-benzoic acid], `O=C(O)c1cccc(-c2nccc(-c3ccc(OC(F)(F)F)cc3)n2)c1` [Compound 69, 3-[4-(4-Trifluoromethoxy-phenyl)-pyrimidin-2-yl]-benzoic acid] is lower in melting point: 289 to 291 °C for the first, 241 to 243 °C for the second.

First: O=C(O)c1cccc(-c2nccc(-c3cccc(F)c3)n2)c1 [Compound 74, 3-[4-(3-Fluoro-phenyl)-pyrimidin-2-yl]-benzoic acid]
Second: Cc1cccc(-c2ccnc(-c3cccc(C(=O)O)c3)n2)c1 [Compound 76, 3-(4-m-Tolyl-pyrimidin-2-yl)-benzoic acid]
The melting point of the first is higher: 253 to 255 °C for the first, 217 to 219 °C for the second.

For `O=C(O)c1cccc(-c2nccc(-c3cccc(C(F)(F)F)c3)n2)c1` [Compound 77, 3-[4-(3-Trifluoromethyl-phenyl)-pyrimidin-2-yl]-benzoic acid], the melting point was 271 to 273 °C.

For `O=C(O)c1ccc(-c2nccc(-c3ccc(-n4ccnc4)cc3)n2)cc1` [Compound 41, 4-[4-(4-Imidazol-1-yl-phenyl)-pyrimidin-2-yl]-benzoic acid], the melting point was > 305 °C.
With `COc1ccc(-c2ncnc(-c3ccc(C(=O)O)cc3)n2)cc1` [Compound 53, 4-[4-(4-Methoxy-phenyl)-[1,3,5]triazin-2-yl]-benzoic acid] the melting point was > 300 °C.
For `O=C(O)c1cccc(-c2nccc(-c3ccc(Br)cc3)n2)c1` [Compound 68, 3-[4-(4-Bromo-phenyl)-pyrimidin-2-yl]-benzoic acid], the melting point was > 300 °C.
For `O=C(O)c1cccc(-c2nccc(-c3ccc(-n4ccnc4)cc3)n2)c1` [Compound 79, 3-[4-(4-Imidazol-1-yl-phenyl)-pyrimidin-2-yl]-benzoic acid], the melting point was > 310 °C.
